≈ marks a conversion by molar mass, not a printed value. Like-named read-outs stand apart in the source and are kept apart here.
Tests used:
[1] = system: 3D7 strain of Plasmodium falciparum; assay: In vitro antiplasmodial activity (SYBR Green, 48 h); assay type: cell-based; conditions: read-out: Antiplasmodial Activity IC50
Protocol: Continuous in vitro cultures of asexual erythrocyte stages of P. falciparum, chloroquine-sensitive 3D7 strain was maintained according to the procedure of Trager and Jensen. Strains were obtained from ATCC, Bei Resources. The host cells were human red blood cells (A+). […] Compound stock solutions were prepared in DMSO at 10 mg/mL (for an extract) and 1 mg/mL (for an isolated compound). Then, the solution is directly diluted in the medium; each test sample was applied in a series of eight 2-fold dilutions in a 96-well plate, starting with 100 µg/mL and 10 µg/mL for the crude extract and purified compounds, respectively, and tested in triplicate. The effect of compounds on the parasite growth was estimated, after 48 h incubation, by using the SYBR Green, a DNA intercalating compound. Artemisinin (Sigma-Aldrich, Machelen, Belgium), at an initial concentration of 100 ng/mL, was used as positive control in all experiments. The half-maximal inhibitory concentration (IC50) values were calculated from graphs.

[2] = Cytotoxicity, Cell Titer-Glo Luminescent Cell Viability Assay; assay type: cell-based; conditions: human
Protocol: (§1) The cytotoxic effect of the crude extract and compounds thereof on THP-1 human acute leukemia cell line was carried using the Cell Titer-Glo Luminescent Cell Viability Assay (Promega). […] Cells were then incubated in the presence or absence of tested compounds for 3 days at 37 °C in a humidified 5% CO2 atmosphere in a 96-wells plate at a cell density of two thousand cells/well. The cell viability was then evaluated using Cell Titer-Glo Luminescent Cell Viability Assay (Promega) according to the manufacturer’s instructions.

[3] = system: different cell lines; parameters: method as in doi:10.1016/j.phytol.2020.10.005; conditions: cited from earlier work
[4] = system: THP-1 human acute leukemia cell line; assay: Cytotoxicity, Cell Titer-Glo Luminescent Cell Viability Assay; assay type: cell-based; conditions: 3 days
Protocol: as §1

[5] = parameters: method as in PMID 21872416; conditions: antiplasmodial activity; read-out: reported IC50; cited from earlier work
[6] = chloroquine-sensitive 3D7 strain, 48 h incubation, SYBR Green, mean ± S.D. of two, three or four independent experiments

SMILES | IC50 [1, 6] | CC50 at 3 days ([2]; Cytotoxic Activity CC50) | other results
C[C@@H]1CC[C@H]2[C@@H](C)C(=O)O[C@@H]3O[C@@]4(C)CC[C@@H]1[C@]32OO4 [Artemisinin, reference compound] | 0.0067 ± 0.003 µg/mL (≈ 0.0237 µM) |  | 
O=C(O)C[C@](O)(Cc1ccc(O)cc1)C(=O)O [Compound 1, eucomic acid] | 0.057 ± 0.031 µg/mL (≈ 0.237 µM) | 375 ± 97.3 µg/mL (≈ 1560 µM) | CC50 [3]: > 100 µM
COc1cc(OC2OC(CO)C(O)C(O)C2O)cc2occ(-c3ccc(O)cc3)c(=O)c12 (stereo not shown) [Compound 2, 7-O-glucopyranosyl-isoprunetin] | 0.113 ± 0.074 µg/mL (≈ 0.253 µM) | 322 ± 20.6 µg/mL (≈ 721 µM) | 
O=c1c(-c2ccc(O)cc2)coc2cc(O[C@@H]3O[C@H](CO)[C@@H](O)[C@H](O)[C@H]3O)cc(O)c12 [Compound 3, genistin] | 7.87 ± 1.72 µg/mL (≈ 18.2 µM) | 169 µg/mL (≈ 390 µM) | Cytotoxic Activity CC50 [4]: 196.3 ± 44.5 µg/mL
O=C(O)CC(=O)OC[C@H]1O[C@@H](Oc2cc(O)c3c(=O)c(-c4ccc(O)cc4)coc3c2)[C@H](O)[C@@H](O)[C@@H]1O [Compound 4, malonyl genistin] | > 10 µg/mL | 182 µg/mL (≈ 351 µM) | Cytotoxic Activity CC50 [4]: 223.3 ± 58.6 µg/mL
COc1cc(O)cc2occ(-c3ccc(O)cc3)c(=O)c12 [Compound 5, isoprunetin] | 0.042 µg/mL (≈ 0.148 µM) | 221 ± 33.3 µg/mL (≈ 778 µM) | 
O=c1c(-c2ccc(O)c(O)c2)coc2cc(O)cc(O)c12 [Compound 6, Isoluteolin] | 0.121 ± 0.048 µg/mL (≈ 0.423 µM) | 243 ± 73 µg/mL (≈ 848 µM) | 
O=c1c(-c2ccc(O)cc2)coc2cc(O)cc(O)c12 [Compound 7, genistein] |  |  | IC50 ([1]; 3D7, 48 h): 7.74 ± 0.802 µg/mL (≈ 28.6 µM); CC50 at 3 days ([2]; THP-1 cells, 3 days incubation, read-out: Cytotoxic Activity CC50): 116 µg/mL (≈ 430 µM)
O=C(O)CC(O)C(=O)O (stereo not shown) [Malic acid, malic acid] |  |  | IC50 [5]: > 10 µM

From publication PMC8125995, “In Vitro Antiplasmodial and Cytotoxic Activities of Compounds from the Roots of Eriosema montanum Baker f. (Fabaceae)” (Molecules, 2021)
